“And” between values parts separate entries of the source, which are not always exact repeats. Equal entries are not always repeated.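 The compound was tested at five concentrations on cells cultured in 96-well plates, with a 48-hour exposure period. At the GI50, growth is halved. The concentration for full growth arrest is given as TGI.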
How the values were obtained:
Test in all cases: inhibition of tumour cell growth, NCI panel, 48 h
[1] = system: SN12C renal
[2] = system: ACHN renal
[3] = system: NCI-H460 lung
[4] = system: SK-MEL-5 melanoma
[5] = system: SW-620 colon
[6] = system: HCT-116 colon
[7] = system: A498 renal
[8] = system: OVCAR-3 ovarian
[9] = system: A549 NSCLC
[10] = system: TK-10 renal

Row | SMILES | TGI [1] | TGI [2] | TGI [3] | TGI [4] | TGI [5] | TGI [6] | TGI [7] | TGI [8] | TGI [9] | TGI [10] | GI50 [1] | GI50 [2] | GI50 [3] | GI50 [4] | GI50 [5] | GI50 [6] | GI50 [7] | GI50 [8] | GI50 [9] | GI50 [10]
1 | O=C(/C=C(\O)C(=O)O)/C=C(\O)c1ccc(Cl)cc1 | > 100 µM | > 100 µM | > 100 µM | > 100 µM | > 100 µM | > 100 µM | > 100 µM | > 100 µM | > 100 µM | > 100 µM |  |  |  |  |  |  |  |  |  | 
2 | COc1ccc(/C(C#N)=C/c2nc3c(N4CCOCC4)nc(Cl)nc3n2C)cc1OC | 1.48 µM | 1.25 µM | 1.99 µM | 0.0347 µM | 1.63 µM | 1.47 µM | < 0.01 µM | < 0.01 µM | 1.92 µM | 2.33 µM | < 0.01 µM | < 0.01 µM | < 0.01 µM | < 0.0108 µM | < 0.01 µM | < 0.01 µM | < 0.01 µM | < 0.01 µM | < 0.01 µM | 0.924 µM
3 | COC1=CC(=O)c2c(O)c3c(c(O)c2C1=O)CC(C)(O)OC3 (centres undefined) | 14.2 µM | > 34 µM | 6.48 µM | 2.41 µM | 12.7 µM | 10.6 µM | 25.2 µM | 7.08 µM | 8.8 µM | 34.4 µM |  |  |  |  |  |  |  |  |  | 
4 | O=C1CCc2cc([N+](=O)[O-])ccc2O1 | > 100 µM | > 100 µM | > 100 µM | > 100 µM | > 100 µM | > 100 µM | > 100 µM | > 100 µM | > 100 µM | > 100 µM |  |  |  |  |  |  |  |  |  | 
5 | CC([C@H]1CCC2C3CCC4C(=O)C(NC=O)=CC[C@]4(C)C3CC[C@@]21C)N(C)C (some centres undefined) | 14.9 µM | 17.2 µM | 5.49 µM | 3.04 µM | 5.54 µM | 3.95 µM | 12.5 µM | 10.2 µM | 12.7 µM | 29.4 µM | 2.92 µM | 4.86 µM | 2.15 µM | 1.54 µM | 2.13 µM | 1.42 µM | 3.83 µM | 2.7 µM | 3.81 µM | 9.71 µM
6 | CN1CCN(c2nc(C3=C(c4c[nH]c5ccccc45)C(=O)NC3=O)c3ccccc3n2)CC1 | 28.5 µM and 35.5 µM | 52.4 µM and > 100 µM | 33.4 µM and 35.9 µM | 20.3 µM and 26 µM | 65 µM and 35.9 µM | 31.9 µM and 37.9 µM | 24.3 µM and 29.7 µM | 44.8 µM and 41.6 µM | 65 µM and 48.9 µM | 65 µM and 49 µM | 9.03 µM and 12.9 µM | 14.9 µM and 20.4 µM | 15.2 µM and 19.2 µM | 11.2 µM and 12.6 µM | 19.8 µM and 19.1 µM | 10.3 µM and 9.78 µM | 12.9 µM and 15.4 µM | 16.2 µM and 19.4 µM | 21.2 µM and 18.4 µM | 27.9 µM and 17.5 µM
7 | Cc1cc(C)c2nc(Nc3nc(C)c(C)c(=O)[nH]3)nc(C)c2c1 | 12 µM | 11.6 µM | 11.1 µM | 11.8 µM | 15.5 µM | 12.9 µM | 5.54 µM | 13.1 µM | 5.92 µM | 17.9 µM | 2.27 µM | 3.06 µM | 2.99 µM | 3.06 µM | 3.12 µM | 2.94 µM | 2.02 µM | 3.59 µM | 2.27 µM | 3.05 µM
8 | CC(=O)c1c[nH]c2ccc(-c3ccnc(Nc4ccc(NC(=O)c5cccc(F)c5)c(CN5CCOCC5)c4)n3)cc12 | > 23.3 µM | 3.1 µM |  | 0.463 µM | 4.82 µM | 14.7 µM | 0.38 µM | 0.932 µM | > 35.5 µM | 1.95 µM | 0.153 µM | 0.0845 µM | 0.176 µM | 0.135 µM | 0.206 µM | 0.0608 µM | 0.102 µM | 0.0955 µM | 0.185 µM | 0.268 µM
9 | Cc1cccc2c1NC(c1c(C)[nH]c3ccccc13)C2 (centres undefined) | > 100 µM | > 100 µM | > 100 µM | > 100 µM | > 100 µM | > 100 µM | > 100 µM | > 100 µM | > 100 µM | > 100 µM |  |  |  |  |  |  |  |  |  | 
10 | O=C(O)CSc1ccn(Cc2ccccc2)c1 | > 100 µM | > 100 µM | > 100 µM | > 100 µM | > 100 µM | > 100 µM | > 100 µM | > 100 µM | > 100 µM | > 100 µM |  |  |  |  |  |  |  |  |  | 
11 | CC1=NN(C(=O)CC(=O)Nc2ccccc2)C(=O)C1N=Nc1ccc(S(N)(=O)=O)cc1 (centres undefined) | > 100 µM | > 100 µM | > 100 µM | > 100 µM | > 100 µM | > 100 µM | > 100 µM | > 100 µM | > 100 µM | > 100 µM |  |  |  |  |  |  |  |  |  | 
12 | COc1cccc(-n2cnc3c(N/N=C/c4ccncc4)ncnc32)c1 | > 25 µM | > 25 µM | > 25 µM | > 25 µM | > 25 µM | > 25 µM | > 23.2 µM | > 25 µM | > 25 µM | > 25 µM | 13.2 µM | 9.06 µM | 13.6 µM | 10.5 µM | > 25 µM | 15.1 µM | 7.1 µM | > 20.8 µM | 17.6 µM | 9.59 µM
13 | COc1cc(Oc2cnc3cc(N)cc(N)c3n2)cc(OC)c1OC | > 100 µM | 63.4 µM | > 100 µM | > 100 µM | > 100 µM | 42.8 µM | > 100 µM | > 100 µM | > 100 µM | > 100 µM | 71.2 µM | 24.3 µM | 52 µM | 39.5 µM | 44.3 µM | 19.6 µM | 65.1 µM | 26.8 µM | > 100 µM | 33.3 µM
14 | COC(=O)C1=C(O)C(C(=O)OC)[C@@]2(O)[C@@H](C(=O)OC)C(c3ccccc3C(F)(F)F)C[C@@H]1[C@@H]2C(=O)OC (some centres undefined) | 15.2 µM | 3.05 µM | 10.5 µM | 13.2 µM | 20.1 µM | 18.8 µM | 7.62 µM | 4.14 µM | 27 µM | 25.5 µM | 4.33 µM | 1.61 µM | 3.11 µM | 3.46 µM | 4.02 µM | 6.34 µM | 3.05 µM | 1.69 µM | 10.4 µM | 12.1 µM
15 | O=C(O)/C=C/C(=O)Nc1cccc2c1-c1ccccc1C2=O | > 100 µM | > 100 µM | > 35.5 µM | > 100 µM | > 100 µM | > 100 µM | > 100 µM | 5.78 µM | > 100 µM | > 29.7 µM |  |  |  |  |  |  |  |  |  | 
